Reference: US5401724A, “Therapeutic treatment of chronic myelogenous leukemia by administration of 2-chloro-2'-deoxy adenosine” (priority 1994, dated 1995)

Columns and labels:
[1] = system: delayed-type hypersensitivity; assay: Oral and IP effects on delayed-type hypersensitivity (DTH) to ovalbumin (Example 5, first study); format: in vivo, guinea pig; details: for inhibition of swelling compared to saline control: 24 and 48 hours after ovalbumin challenge; for effectiveness when given orally: without the protection of an enteric coating (2-CdA), preliminary in vivo studies
Method: (§1) Delayed-type hypersensitivity (DTH) is a cell-mediated immune response that typically takes longer than 12 hours to develop. In the guinea pig, a DTH reaction to an antigen can be established by first immunizing the animal with the antigen in an adjuvant such as Freund's complete adjuvant. Subsequent intradermal injection of the antigen causes no change for at least 10 hours, after which there is a gradual increase in erythema and swelling in response to antigen injection. This response peaks about at about 24 hours after challenge, then gradually subsides.
(§2) Histologically, the inflammatory response is characterized by intense inundation of the site with mononuclear cells, of which about half are lymphocytes and the other half monocytes. DTH is therefore an indicator of a monocyte-mediated immune reaction.
In one study, guinea pigs were sensitized to ovalbumin in adjuvant. […] The animals were then injected with ovalbumin intradermally to elicit the DTH response. The mean area of the swelling size was measured for each animal (nine or ten animals were treated for each protocol).

[2] = system: delayed-type hypersensitivity; assay: Effects of different dosages of 2-CdA on DTH to ovalbumin (Example 5, second study); format: in vivo, guinea pig; details: for inhibition of swelling compared to saline control: 24 and 48 hours post-challenge, p <0.01 by Student's t-test
Method: as §1, §2
Three days after treatment, the animals were challenged with ovalbumin intradermally. The areas of the skin lesions were measured at 6, 24, and 48 hours after challenge.

[3] = pH 1, 37 degrees C.; cited from earlier work
[4] = system: CEM, deoxyeytidine kinase deficient; assay: cells; details: Homo sapiens, 120 h, read-out: ID50
Description: (§4) ^1 Concentration that produced 50 percent reduction in all numbers

K562 (myeloid cell line) = assay: cells; details: Homo sapiens
Method: (§5) Seven different cell lines were treated with varying concentrations of 2-chloro-9,1'-beta-2'-deoxy-2'-fluoro-D-arabinofuranosyladenine (CAFdA) to determine percent viability. CAFdA concentrations ranging from 0 to about 260 nM were used to treat each cell line in vitro.

Molt-4 (T cell line) = assay: cells; details: Homo sapiens
Description: (§6) Of the other five cell lines, two were T cell lines, one called CEM and the other Molt-4, and the remaining three were monocyte-like cell lines, designated THP-1, U937 and HL-60, respectively.

Monocytes [5] = system: Monocytes
Description: as §4

Monocytes [6] = assay: cells; details: Homo sapiens, Monocyte, 120 h, read-out: ID50
Description: as §4

[7] = system: HL-60 (monocyte-like cell line); assay: cells; details: Homo sapiens
Description: as §6

[8] = system: Peripheral blood lymphocytes; assay: cells; details: Homo sapiens, Lymphocyte, 120 h, read-out: ID50
Description: as §4

CEM, wild type [9] = assay: cells; details: Homo sapiens, 120 h, read-out: ID50
Description: as §4

CEM (T cell line) = assay: cells; details: Homo sapiens
Description: as §6

[10] = system: DHL9, Increased ribonucleotide reduction; assay: cells; details: Homo sapiens, 120 h, read-out: ID50
Description: as §4

[11] = system: U937 (monocyte-like cell line); assay: cells; details: Homo sapiens, U-937
Description: as §6

[12] = system: CEM, Increased 5'-nucleoside
Description: as §4

[13] = system: DHL9, Increased ribonucleotide reduction
Description: as §4

[14] = system: THP-1 (monocyte-like cell line); assay: cells; details: Homo sapiens
Description: as §6

CEM, wild type [15] = system: CEM, wild type
Description: as §4

[16] = system: CEM, Increased 5'-nucleoside; assay: cells; details: Homo sapiens, 120 h, read-out: ID50
Description: as §4

[17] = system: Peripheral blood lymphocytes
Description: as §4

SB (B cell line) = assay: cells; details: Homo sapiens
Method: as §5

[18] = system: chronic myelogenous leukemia; details: cited from earlier work; for bone marrow cells with the translocation: marrow of treated patients
neutrophils = details: chronic lymphocytic leukemia; serum levels less than 10 nM; in most cases; cited from earlier work
[19] = system: Mature BFU-E (mBFU-E) cells; details: read-out: IC50 (concentration required to inhibit 50 percent of growth); cited from earlier work
granulocytes [20] = assay: Effects of 2-CdA on granulocyte counts in two non-CML (multiple sclerosis) patients (Example 3); format: in vivo, human
Description: Those results are illustrated and discussed hereinafter in Example 3.
Granulocyte counts were obtained from two patients who were receiving 2-CdA in the treatment of a non-leukemic disease, multiple sclerosis. These patients therefore had normal granulocytes.

CFU-GM cells = details: 100 nM; cited from earlier work
[21] = system: total circulating peripheral blood granulocytes; assay: Effect of 2-CdA on total circulating peripheral blood granulocytes in a patient with CML (Example 2); format: in vivo, human
Method: (§3) Each course was repeated every 28 days until the maximum hematological remission response of the treatment was achieved. The median age of the patients was 60 years, with a range of 52 to 75 years. There were 3 males and 2 females. A median of 2 courses of treatment was administered, with a range of 1 to 4 courses.

[22] = system: Primitive burst-forming unit-erythroid (pBFU-E) cells; details: read-out: IC50 (concentration required to inhibit 50 percent of growth); cited from earlier work
[23] = system: Colony forming unit-granulocyte macrophage (CFU-GM) cells; details: read-out: IC50 (concentration required to inhibit 50 percent of growth); cited from earlier work
[24] = system: colony forming unit-erythroid (CFU-E) cells; details: read-out: IC50 (concentration required to inhibit 50 percent of growth); cited from earlier work
[25] = system: chronic myelogenous leukemia; assay: Hematological remission in patients with stable phase CML treated with 2-CdA (Example 1); format: in vivo, human
Method: as §3
The median follow-up was 3.2 months, with a range from 1.0 to 5.7 months.

CML in blast crisis = details: Phase I, cited from earlier work
granulocytes [26] = details: hairy cell leukemia, cited from earlier work
[27] = 1 mg/kg, intraperitoneal, p <0.01 by Student's t-test

Compound: C[C@@H]1C[C@H]2[C@@H]3CCC4=CC(=O)C=C[C@]4(C)[C@@]3(F)[C@@H](O)C[C@]2(C)[C@@]1(O)C(=O)CO [dexamethasone, reference compound]
- inhibition of swelling compared to saline control ([1]; 5 mg/kg, intraperitoneal, p <0.01 by Student's t-test): significant inhibition of swelling
- inhibition of swelling compared to saline control ([1]; 5 mg/kg, oral, p <0.01 by Student's t-test): significant inhibition of swelling
- inhibition of swelling compared to saline control ([2]; 5 mg/kg): effective at inhibiting swelling

Compound: Nc1ncnc2c1ncn2[C@@H]1O[C@H](CO)C[C@H]1F [2'-fluoro-2',3'-dideoxyribose]
- stability [3]: stable

Compound: Nc1nc(Cl)nc2c1ncn2[C@@H]1O[C@H](CO)[C@@H](O)[C@@H]1F [CAFdA, 2-chloro-9,1'-beta-2'-deoxy-2'-fluoro-D-arabinofuranosyladenine]
- IC50 [4]: 716000 nM
- viability at 0.26 µM (K562 (myeloid cell line)): 40%
- viability at 0.06 µM (Molt-4 (T cell line)): < 20%
- viability at 0.13 µM (Molt-4 (T cell line)): < 10%
- CAFdA/2-CdA (ID50 ratio) (Monocytes [5]): 2.1
- IC50 (Monocytes [6]): 47 nM
- viability at 0.05 µM [7]: ≤ 60%
- viability at 0.06 µM [7]: < 20%
- viability at 0.13 µM [7]: < 10%
- IC50 [8]: 18 nM
- IC50 (CEM, wild type [9]): 67 nM
- viability at 0.05 µM (CEM (T cell line)): ≤ 60%
- viability at 0.06 µM (CEM (T cell line)): < 20%
- viability at 0.13 µM (CEM (T cell line)): < 10%
- IC50 [10]: 6000 nM
- viability at 0.06 µM [11]: < 20%
- viability at 0.13 µM [11]: < 10%
- CAFdA/2-CdA (ID50 ratio) [12]: 2.1
- CAFdA/2-CdA (ID50 ratio) [13]: 15.
- inhibition of swelling compared to saline control [1, 27]: significant inhibition of swelling
- inhibition of swelling compared to saline control ([1]; 1 mg/kg, oral, p <0.01 by Student's t-test): significant inhibition of swelling
- effectiveness when given orally ([1]; oral): effective
- viability at 0.05 µM [14]: ≤ 60%
- viability at 0.06 µM [14]: < 20%
- viability at 0.13 µM [14]: < 10%
- CAFdA/2-CdA (ID50 ratio) (CEM, wild type [15]): 3.1
- IC50 [16]: 126 nM
- CAFdA/2-CdA (ID50 ratio) [17]: 1.9
- viability at 0.26 µM (SB (B cell line)): 90%

Compound: Nc1ncnc2c1ncn2[C@@H]1O[C@H](CO)C[C@@H]1F [2'-fluoro-2',3'-dideoxyarabinose]
- stability [3]: stable

Compound: CS(=O)(=O)OCCCCOS(C)(=O)=O [busulfan]
- serious complication ("busulfan lung") ([18]; CML treatment): bronchopulmonary dysplasia with pulmonary fibrosis
- bone marrow cells with the translocation [18]: still contains a predominance of cells with the translocation

Compound: α-interferon
- bone marrow cells with the translocation [18]: sometimes loses the clone with the translocation

Compound: Nc1nc(Cl)nc2c1ncn2[C@H]1C[C@H](O)[C@@H](CO)O1 [2-CdA, 2-chloro-2'-deoxyadenosine]
- neutrophil count (neutrophils): increase in neutrophil count
- IC50 [4]: 716000 nM
- IC50 (Monocytes [6]): 22 nM
- IC50 [8]: 15 nM
- IC50 (CEM, wild type [9]): 21 nM
- IC50 [19]: 38 nM
- granulocyte counts after several courses (granulocytes [20]; multiple sclerosis patients, about 0.1 mg/kg/day, seven day continuous infusion): substantially unchanged
- effect on the granulocyte count (granulocytes [20]; two multiple sclerosis patients): did not affect the granulocyte count
- reduction of CFU-GM growth (CFU-GM cells): 60%
- IC50 [10]: 4000 nM
- granulocyte count ([21]; second course, day 5): 27,724 /μl
- decrease from the granulocyte count at day zero ([21]; second course, day 13): > 99%
- granulocyte count ([21]; second course, day 13): 210 µL⁻¹
- granulocyte count ([21]; second course, day 17): 690 µL⁻¹
- granulocyte count ([21]; second course, day zero (start of therapy)): 34,831 /μl
- granulocyte count ([21]; third course, day 5, unit not given): 5,676 /μl
- decrease from the initial granulocyte level ([21]; third course, day 14): approximately 98%
- granulocyte count ([21]; third course, day 14, unit not given): 270 µL⁻¹
- lower than the initial granulocyte count ([21]; third course, day 17): 95%
- granulocyte count ([21]; third course, day 17, unit not given): 525 µL⁻¹
- granulocyte count ([21]; third course, day zero, unit not given): 11,060 /μl
- IC50 [22]: 19 nM
- IC50 [23]: 16 nM
- inhibition of swelling compared to control animals [1, 27]: significant inhibition of swelling
- effect on DTH swelling, oral route ([1]; 1 mg/kg, oral, without enteric coating): ineffective
- effectiveness when given orally ([1]; oral): ineffective
- IC50 [24]: 56 nM
- IC50 [16]: 60 nM
- toxicity attributable to 2-CdA ([25]; 0.1 mg/kg per day continuous i.v. infusion for 7 days, 1 to 4 courses): No toxicity attributable to 2-CdA was encountered
- hematological remission upon follow-up, Patient 4 ([25]; 1 course, prior hydroxyurea and α-interferon, follow-up 1.5 months): complete hematological remission
- hematological remission upon follow-up, Patient 5 ([25]; 2 courses, prior hydroxyurea, follow-up 1.0 months): complete hematological remission
- hematological remission upon follow-up, Patient 2 ([25]; 2 courses, prior hydroxyurea, follow-up 3.0 months): complete hematological remission
- hematological remission upon follow-up, Patient 3 ([25]; 3 courses, prior hydroxyurea and α-interferon, follow-up 3.2 months): complete hematological remission
- hematological remission upon follow-up, Patient 1 ([25]; 4 courses, prior hydroxyurea, follow-up 5.7 months): complete hematological remission
- complete hematological remissions (normalization of peripheral leukocyte counts, platelet counts, and resolution of splenomegaly) ([25]; 5 patients, 0.1 mg/kg per day continuous i.v. infusion for 7 days, repeated every 28 days, median 2 courses): All five patients obtained complete hematological remissions
- median follow-up (all patients continuing in hematologic remission) ([25]; 5 patients, range 1.0 to 5.7 months): 3.2 months
- Philadelphia chromosome at follow-up ([25]; all patients): persistence of the Philadelphia chromosome
- hematologic remission at follow-up, all patients ([25]; median follow-up 3.2 months): All patients continue to be in hematologic remission
- inhibition of swelling compared to saline control ([2]; 0.1 mg/kg): effective at inhibiting swelling
- inhibition of swelling compared to saline control ([2]; 1 mg/kg): effective at inhibiting swelling
- areas of swelling, 0.1 vs 1.0 mg/kg ([2]; 0.1 and 1.0 mg/kg): substantially the same
- areas of swelling compared to dexamethasone-treated animals ([2]; 0.1 and 1.0 mg/kg 2-CdA vs dexamethasone 5 mg/kg): slightly less than the value obtained with dexamethasone
- detectable tumor (CML in blast crisis; another of two patients): loss of detectable tumor in another patient
- blast count (CML in blast crisis; one of two patients): decrease in blast count in one patient
- neutropenia (granulocytes [26]): transient neutropenia
- granulocyte counts (granulocytes [26]; transient): under 500 per microliter

Compound: NC(=O)NO [hydroxyurea]
- bone marrow cells with the translocation [18]: still contains a predominance of cells with the translocation
